Measured values from patent US10017507B2, “Diaza-benzofluoranthrene compounds” (HARBIN PHARMACEUTICAL GROUP CO., LTD. GENERAL …, priority 2015, dated 2018).

The compounds below were run against T1, PDE1A (Homo sapiens, UniProt P54750) (assay: In vitro detection of phosphodiesterase (PDE): PDE1A enzyme activity by fluorescence polarization immunoassay). Conditions: human-derived enzyme, cAMP or cGMP substrate; read-out: IC50s for PDE1.
T1 construct: purchased SignalChem
Assay type: biochemical
Experimental: Test 1: In Vitro Detection of Phosphodiesterase (PDE)
the enzyme activity of PDE1A was determined by detecting the production of AMP/GMP by fluorescence polarization immunoassay, wherein AlexaFluor 633 labeled AMP/GMP was used to replace AMP/GMP to bind with the antibody.
Reaction buffer: 10 mM Tris-HCl, pH 7.5, 5 mM magnesium chloride, 0.01% Brij 35, 1 mM DTT and 1% DMSO;
Enzyme substrate: […] cAMP or cGMP (Ca^2+-calmodulin acts as a cofactor of PDE1A)
Detection reagent: Transcreener® AMP2/GMP2 antibody; AMP2/GMP2 AlexaFluor 633 tracer.
Experimental Procedure and Method:
1. Human-derived enzyme (commercially available from SignalChem) to be tested and substrate were diluted with freshly prepared reaction buffer;
2. The enzyme solution (with a concentration of 3 pM) was added to the holes of the microplates;
3. A series of solutions of the compounds in 100% DMSO (with the desired concentrations) were added to the holes containing the enzyme solution by Echo550, and then the microplates were incubated for 10 minutes at room temperature;
4. The substrate solution was added to the holes containing the enzyme and compounds to start the reaction;
5. The microplates were incubated for 1 hour under room temperature and vibration;
6. The detection mixture (tracer and antibody in stop buffer) was added to stop the enzyme reaction, and the microplates were incubated for 90 minutes under vibration;
7. The equipment EnVision (PerkinElmer), Cy5 FP Ex FP 620, Em S-pol 688/P-pol 688, FP mirror D658fp/D688 was used to detect the reaction mixture, and Ex/Em 620/688 was used to detect the fluorescence polarization.
In the Excel table, the enzyme activity corresponding to the FP signal was found on the AMP/GMP standard curve by reference to the DMSO negative control, and then was converted to product concentration (nM). GraphPad Prism was used to analyze and calculate the IC50 values.
An IC50 greater than 100 µM was found for `CC[C@@]12C=C(c3noc(-c4ccc(F)cc4)n3)n3c4c(c5ccccc53)CCN(CCC1)[C@H]42` [Example 27, 3-((4^1S,13aS)-13a-ethyl-2,3,4^1,5,6,13a-hexahydro-1H-indolo[3,2,1-de]pyrido[3,2,1-ij][1,5]naphthyridin-12-yl)-5-(4-fluorophenyl)-1,2,4-oxadiazole] in this work. An IC50 greater than 100 µM was found for `CC[C@@]12C=C(c3noc(-c4cccs4)n3)n3c4c(c5ccccc53)CCN(CCC1)[C@H]42` [Example 28, 3-((4^1S,13aS)-13a-ethyl-2,3,4^1,5,6,13a-hexahydro-1H-indolo[3,2,1-de]pyrido[3,2,1-ij][1,5]naphthyridin-12-yl)-5-(thiophen-2-yl)-1,2,4-oxadiazole] in this work. An IC50 greater than 100 µM was found for `CC[C@@]12C=C(c3nc(-c4ccccc4)no3)n3c4c(c5ccccc53)CCN(CCC1)[C@H]42` [Example 30, 5-((4^1S,13aS)-13a-ethyl-2,3,4^1,5,6,13a-hexahydro-1H-indolo[3,2,1-de]pyrido[3,2,1-ij][1,5]naphthyridin-12-yl)-3-phenyl-1,2,4-oxadiazole] in this work. An IC50 of 1 to 20 µM was found for `CC[C@@]12C=C(c3nc(-c4ccncc4)no3)n3c4c(c5ccccc53)CCN(CCC1)[C@H]42` [Example 31, 5-((4^1S,13aS)-13a-ethyl-2,3,4^1,5,6,13a-hexahydro-1H-indolo[3,2,1-de]pyrido[3,2,1-ij][1,5]naphthyridin-12-yl)-3-(pyridin-4-yl)-1,2,4-oxadiazole] in this work. An IC50 greater than 100 µM was found for `CC[C@@]12C=C(c3nc(-c4ccc(F)cc4)no3)n3c4c(c5ccccc53)CCN(CCC1)[C@H]42` [Example 32, 5-((4S,13aS)-13a-ethyl-2,3,4^1,5,6,13a-hexahydro-1H-indolo[3,2,1-de]pyrido[3,2,1-ij][1,5]naphthyridin-12-yl)-3-(4-fluorophenyl)-1,2,4-oxadiazole] in this work. An IC50 of 1 to 20 µM was found for `CCc1noc(C2=C[C@]3(CC)CCCN4CCc5c(n2c2ccccc52)[C@@H]43)n1` [Example 33, 3-ethyl-5-((4^1S,13aS)-13a-ethyl-2,3,4^1,5,6,13a-hexahydro-1H-indolo[3,2,1-de]pyrido[3,2,1-ij][1,5]naphthyridin-12-yl)-1,2,4-oxadiazole] in this work. An IC50 of 1 to 20 µM was found for `CC[C@@]12C=C(c3nc(C(C)C)no3)n3c4c(c5ccccc53)CCN(CCC1)[C@H]42` [Example 34, 5-((4S,13aS)-13a-ethyl-2,3,4^1,5,6,13a-hexahydro-1H-indolo[3,2,1-de]pyrido[3,2,1-ij][1,5]naphthyridin-12-yl)-3-isopropyl-1,2,4-oxadiazole] in this work. An IC50 of 1 to 20 µM was found for `CC[C@@]12C=C(c3nc(C4CC4)no3)n3c4c(c5ccccc53)CCN(CCC1)[C@H]42` [Example 35, 3-Cyclopropyl-5-((4^1S,13aS)-13a-ethyl-2,3,4^1,5,6,13a-hexahydro-1H-indolo[3,2,1-de]pyrido[3,2,1-ij][1,5]naphthyridin-12-yl)-1,2,4-oxadiazole] in this work. An IC50 of 20 to 100 µM was found for `CC[C@@]12C=C(c3nc(C(F)F)no3)n3c4c(c5ccccc53)CCN(CCC1)[C@H]42` [Example 36, 3-Difluoromethyl-5-((4^1S,13aS)-13a-ethyl-2,3,4^1,5,6,13a-hexahydro-1H-indolo[3,2,1-de]pyrido[3,2,1-ij][1,5]naphthyridin-12-yl)-1,2,4-oxadiazole] in this work. An IC50 of 1 to 20 µM was found for `CC[C@@]12C=C(c3nc(C(C)(C)O)no3)n3c4c(c5ccccc53)CCN(CCC1)[C@H]42` [Example 37, 2-(5-((4^1S,13aS)-13a-ethyl-2,3,4^1,5,6,13a-hexahydro-1H-indolo[3,2,1-de]pyrido[3,2,1-ij][1,5]naphthyridin-12-yl)-1,2,4-oxadiazol-3-yl)-propan-2-ol] in this work. An IC50 of 20 to 100 µM was found for `CC[C@@]12C=C(C3=N[C@@H](C)CO3)n3c4c(c5ccccc53)CCN(CCC1)[C@H]42` [Example 38, (S)-2-((4^1S,13aS)-13a-ethyl-2,3,4^1,5,6,13a-hexahydro-1H-indolo[3,2,1-de]pyrido[3,2,1-ij][1,5]naphthyridin-12-yl)-4-methyl-4,5-dihydrooxazole] in this work. An IC50 of 1 to 20 µM was found for `CC[C@@]12C=C(c3nc(C)ns3)n3c4c(c5ccccc53)CCN(CCC1)[C@H]42` [Example 39, 5-((4^1S,13aS)-13a-ethyl-2,3,4^1,5,6,13a-hexahydro-1H-indolo[3,2,1-de]pyrido[3,2,1-ij][1,5]naphthyridin-12-yl)-3-methyl-1,2,4-thiadiazole] in this work. An IC50 of 1 to 20 µM was found for `CC[C@@]12C=C(c3nc(C)c(C)s3)n3c4c(c5ccccc53)CCN(CCC1)[C@H]42` [Example 40, 2-((4^1S,13aS)-13a-ethyl-2,3,4^1,5,6,13a-hexahydro-1H-indolo[3,2,1-de]pyrido[3,2,1-ij][1,5]naphthyridin-12-yl)-4,5-dimethylthiazole] in this work. An IC50 of no more than 1 µM was found for `CC[C@@]12C=C(c3nc(C)c(OC)o3)n3c4c(c5ccccc53)CCN(CCC1)[C@H]42` [Example 41, 2-((4^1S,13aS)-13a-ethyl-2,3,4^1,5,6,13a-hexahydro-1H-indolo[3,2,1-de]pyrido[3,2,1-ij][1,5]naphthyridin-12-yl)-5-methoxy-4-methyloxazole] in this work. An IC50 of 1 to 20 µM was found for `CC[C@@]12C=C(c3cn4ccccc4n3)n3c4c(c5ccccc53)CCN(CCC1)[C@H]42` [Example 42, (4^1S,13aS)-13a-ethyl-12-(imidazo[1,2-a]pyridin-2-yl)-2,3,4^1,5,6,13a-hexahydro-1H-indolo[3,2,1-de]pyrido[3,2,1-ij][1,5]naphthyridine] in this work. An IC50 of 20 to 100 µM was found for `CC[C@@]12C=C(c3csc(N)n3)n3c4c(c5ccccc53)CCN(CCC1)[C@H]42` [Example 43, 4-((4^1S,13aS)-13a-ethyl-2,3,4^1,5,6,13a-hexahydro-1H-indolo[3,2,1-de]pyrido[3,2,1-ij][1,5]naphthyridin-12-yl)-thiazole-2-amine] in this work. An IC50 of 20 to 100 µM was found for `CC[C@@]12C=C(c3cn4ccc(C(F)(F)F)cc4n3)n3c4c(c5ccccc53)CCN(CCC1)[C@H]42` [Example 44, (4^1S,13aS)-13a-ethyl-12(7-(trifluoromethyl)imidazo[1,2-a]pyridin-2-yl)-2,3,4^1,5,6,13a-hexahydro-1H-indolo[3,2,1-de]pyrido[3,2,1-ij][1,5]naphthyridine] in this work. An IC50 of 20 to 100 µM was found for `CC[C@@]12C=C(c3ccno3)n3c4c(c5ccccc53)CCN(CCC1)[C@H]42` [Example 45, 5-((4^1S,13aS)-13a-ethyl-2,3,4^1,5,6,13a-hexahydro-1H-indolo[3,2,1-de]pyrido[3,2,1-ij][1,5]naphthyridin-12-yl)isoxazole] in this work. An IC50 of 1 to 20 µM was found for `CC[C@@]12C=C(c3cc(C)no3)n3c4c(c5ccccc53)CCN(CCC1)[C@H]42` [Example 47, 5-((4^1S,13aS)-13a-ethyl-2,3,4^1,5,6,13a-hexahydro-1H-indolo[3,2,1-de]pyrido[3,2,1-ij][1,5]naphthyridin-12-yl)-3-methylisoxazole] in this work. An IC50 of 1 to 20 µM was found for `CCC/C(=N\OC)C1=C[C@]2(CC)CCCN3CCc4c(n1c1ccccc41)[C@@H]32` [Example 48, 1-((4^1S,13aS)-13a-ethyl-2,3,4^1,5,6,13a-hexahydro-1H-indolo[3,2,1-de]pyrido[3,2,1-ij][1,5]naphthyridin-12-yl)butan-1-one-O-methyl oxime] in this work. An IC50 greater than 100 µM was found for `CCCC(O)(CCC)C1=C[C@]2(CC)CCCN3CCc4c(n1c1ccccc41)[C@@H]32` [Example 49, 4-((4^1S,13aS)-13a-ethyl-2,3,4^1,5,6,13a-hexahydro-1H-indolo[3,2,1-de]pyrido[3,2,1-ij][1,5]naphthyridin-12-yl) heptan-4-ol] in this work. An IC50 of 1 to 20 µM was found for `CC[C@@]12C=C(c3nc(C)co3)n3c4c(c5ccccc53)CCN(CCC1)[C@H]42` [Example 50, 2-((4^1S,13aS)-13a-ethyl-2,3,4^1,5,6,13a-hexahydro-1H-indolo[3,2,1-de]pyrido[3,2,1-ij][1,5]naphthyridin-12-yl)-4-methyloxazole] in this work. An IC50 of 1 to 20 µM was found for `CC[C@@]12C=C(c3ncc(C)o3)n3c4c(c5ccccc53)CCN(CCC1)[C@H]42` [Example 51, 2-((4^1S,13aS)-13a-ethyl-2,3,4^1,5,6,13a-hexahydro-1H-indolo[3,2,1-de]pyrido[3,2,1-ij][1,5]naphthyridin-12-yl)-5-methyloxazole] in this work. An IC50 of no more than 1 µM was found for `CC[C@@]12C=C(c3nc(C)c(C)o3)n3c4c(c5ccccc53)CCN(CCC1)[C@H]42` [Example 52, 2-((4^1S,13aS)-13a-ethyl-2,3,4^1,5,6,13a-hexahydro-1H-indolo[3,2,1-de]pyrido[3,2,1-ij][1,5]naphthyridin-12-yl)-4,5-dimethyloxazole] in this work. An IC50 of no more than 1 µM was found for `CCc1oc(C2=C[C@]3(CC)CCCN4CCc5c(n2c2ccccc52)[C@@H]43)nc1C` [Example 53, 5-ethyl-2-((4^1S,13aS)-13a-ethyl-2,3,4^1,5,6,13a-hexahydro-1H-indolo[3,2,1-de]pyrido[3,2,1-ij][1,5]naphthyridin-12-yl)-4-methyloxazole] in this work. An IC50 of 1 to 20 µM was found for `CC[C@@]12C=C(c3nc(C)c(C(C)C)o3)n3c4c(c5ccccc53)CCN(CCC1)[C@H]42` [Example 54, 2-((4^1S,13aS)-13a-ethyl-2,3,4^1,5,6,13a-hexahydro-1H-indolo[3,2,1-de]pyrido[3,2,1-ij][1,5]naphthyridin-12-yl)-5-isopropyl-4-methyloxazole] in this work.
